Measurements: US11046686B2, “Thiadiazole IRAK4 compounds” (Gilead Sciences, Inc., priority 2018, dated 2021)
Read-outs that look alike come from different tables or passages of the source.

Key:
TNFα = assay: IRAK4 Monocyte TNFα Cell Based Assay; design: species or system human; conditions: Homo sapiens, Monocyte, human monocytes
How it was run: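 Human monocytes (5,000/well) pretreated with compound 1 h at 37 °C (0.1% DMSO final), then stimulated with 50 pg/ml LPS for 4 h. Secreted TNFα measured by TR-FRET two-antibody detection after overnight incubation at room temperature; % control relative to unstimulated and LPS-stimulated wells.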

IRAK4 enzyme = IRAK4 enzyme (Homo sapiens (Human), UniProt Q9NWZ3); assay: IRAK4 Biochemical Assay (TR-FRET, STK1 KinEASE)
Chain of IRAK4 enzyme (Q9NWZ3 whole entry): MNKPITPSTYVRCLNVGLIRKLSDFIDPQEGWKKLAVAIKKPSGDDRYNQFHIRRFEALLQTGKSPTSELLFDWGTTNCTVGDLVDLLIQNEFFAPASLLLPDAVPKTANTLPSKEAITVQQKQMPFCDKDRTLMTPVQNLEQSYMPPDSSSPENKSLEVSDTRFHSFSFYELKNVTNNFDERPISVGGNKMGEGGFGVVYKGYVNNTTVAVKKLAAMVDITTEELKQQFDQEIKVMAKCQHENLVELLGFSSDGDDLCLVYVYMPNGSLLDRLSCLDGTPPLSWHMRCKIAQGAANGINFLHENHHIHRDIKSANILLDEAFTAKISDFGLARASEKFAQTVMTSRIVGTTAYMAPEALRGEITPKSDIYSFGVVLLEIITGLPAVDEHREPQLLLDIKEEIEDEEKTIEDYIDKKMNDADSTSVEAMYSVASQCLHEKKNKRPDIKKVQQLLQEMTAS
How it was run: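 IRAK4 (0.75 nM) preincubated 15 min with compound and […] STK1 peptide, then started with 500 μM ATP in HEPES pH 7.0 buffer with MgCl2, DTT, BSA, NP-40; 120 min at room temperature.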

[1] = second part of Table 2, compounds 33-343, unit inferred, read-out: EC50 MONO TNF HTRF

Row | EC50 (TNFα; LPS stimulated, compounds 1-32, read-out: EC50 TNF) | IC50 (IRAK4 enzyme; compounds 1-32, read-out: IC50 HTRF) | Compound | EC50 (TNFα; [1]) | IC50 (IRAK4 enzyme)
1 |  |  | CC(C)Nc1cc(-c2ccc3cc(C#N)cnn23)ncc1-c1nnc(N2C3COCC2C3)s1 [Compound 234, 7-(5-(5-(3-oxa-6-azabicyclo[3.1.1]heptan-6-yl)-1,3,4-thiadiazol-2-yl)-4-(isopropylamino)pyridin-2-yl)pyrrolo[1,2-b]pyridazine-3-carbonitrile] | 0.178 µM | 0.00128 µM
2 |  |  | CC(=O)NC1CCC2(C1)CN(c1nnc(-c3cnc(-c4ccc5cc(C#N)cnn45)cc3NC(C)C)s1)C2 (centres unmarked) [Example 170, N-(2-(5-(6-(3-cyanopyrrolo[1,2-b]pyridazin-7-yl)-4-(isopropylamino)pyridin-3-yl)-1,3,4-thiadiazol-2-yl)-2-azaspiro[3.4]octan-6-yl)acetamide] | 0.016 µM | 0.00036 µM
3 |  |  | CC(=O)N1CC2(C1)CN(c1nnc(-c3cnc(-c4ccc5cc(C#N)cnn45)cc3NC(C)C)s1)C2 [Example 68, 7-(5-(5-(6-acetyl-2,6-diazaspiro[3.3]heptan-2-yl)-1,3,4-thiadiazol-2-yl)-4-(isopropylamino)pyridin-2-yl)pyrrolo[1,2-b]pyridazine-3-carbonitrile] | 0.0379 µM | 0.00045 µM
4 | 0.157 µM | < 0.001 µM | CC(=O)N1CCN(C(=O)c2nnc(-c3cnc(-c4ccc5cc(C#N)cnn45)cc3NC(C)C)s2)CC1 [Example 10, 7-(5-(5-(4-acetylpiperazine-1-carbonyl)-1,3,4-thiadiazol-2-yl)-4-(isopropylamino)pyridin-2-yl)pyrrolo[1,2-b]pyridazine-3-carbonitrile] |  | 
